The text below walks through data of patent publication EP0126287B1, “Fluorinated compounds having analgesic and antiinflammatory activities” (MEDEA RESEARCH S.r.l., priority 1983, dated 1984).

Data set [1] has as its system writhing induced by acetic acid in the rat. Nature of the data set: Inhibition of writhing induced by acetic acid, analgesic ED50. The class given is in vivo. The note with it: po. The method, then: The ED50 in the analgesic activity of MR 883, in comparison to Diflunisal, D-prppoxyphene, phenylbutazone and acetylsalicylic acid was determined according to the test of inhibition of writhing induced by acetic acid in the rat (Sofia et al., J. Pharmacol. Expt. Therap. 186, 646, 1973).
(In general: In writhing tests, fewer writhes than in controls are read as antinociception.)

The subject of data set [2] is carrageenin oedema in the rat paw. Nature of the data set: Carrageenin oedema test (rat paw), antiinflammatory activity. The data set is classed as in vivo. The following applies: for Inhibition versus control / AREAS % M ± ES: 50 mg/kg p.o., 10 rats per group; for Inhibition versus control: oedema areas; for AREAS % M ± ES: control 305 ±23.7; for ED50: Rattus norvegicus, carrageenin oedema, oral, groups of 10 rats, dosages of 25.50 and 100 mg/kg. The method, then: The antiinflammatory activity of the compounds of the invention was determined according to the carrageenin oedema test in rats, in comparison with equiponderal dosages of Diflunisal (Rissly, Ness.; Proc. Soc. Exp. Biol. Med., 111, 544-547, 1962).
ED50 of MR 883 and Diflunisal were determined according to the same test. Groups of 10 rats were administered orally with the compounds at dosages of 25.50 and 100 mg/kg.
In general terms: Carrageenan injected into the paw causes an acute inflammation.

For data set [3], the system named is writhing induced by phenylquinone administration in Swiss rats. The data set is described as follows: Phenylquinone writhing test, analgesic activity. The class given is in vivo. The note with it: for No. WRITHINGS M̄ ± ES: control 24.5 ±2.2. The method, then: The analgesic activity of the compounds of the invention was determined according to the writhing test, as inhibitory activity against the writhing induced by phenylquinone administration in Swiss rats (Siegmund et al., Proc. Soc. Exp. Biol. Med. 95, 729, 1957). The analgesic activity of MR 883 was determined in comparison to the one of Diflunisal and Naproxen.

The subject of a further data set is rat. The note with it: cited from earlier work.
Data set [4] in a line: Acute toxicology: indicative LD50 in the rat. The note with it: in vivo, ip.
A short description of data set [5]: Qualitative solubility of the isolated product. The following applies: for solubility in bicarbonate solutions: bicarbonate solution. The class given is physicochemical.
Setting [6] is: dose 50 mg/kg, 10 animals per group.
The mark [7] stands for this setting: acetic acid writhing in the rat, per os, read-out: ED50.

The structures appear in SMILES notation. Like-named read-outs stand apart in the source and are kept apart here.

A word on the ED50: it is the dose that gives a 50% effect, or the effect in half of the subjects. In data set [1] (Rattus norvegicus), `CC(=O)Oc1ccccc1C(=O)O` [Acetylsalicylic acid] came in with an ED50 of 330 mg/kg.

On to `CCC(=O)O[C@](Cc1ccccc1)(c1ccccc1)[C@H](C)CN(C)C` [D-propoxyphene], for which the ED50 in data set [1] (Rattus norvegicus) is 40 mg/kg.

`O=C(O)c1cc(-c2ccc(F)cc2F)ccc1O` [Diflunisal, reference compound]: in data set [2], the Inhibition versus control came out at 59.6%, the “AREAS % M ± ES” value amounted to 123.3 ±10.1 and the ED50 stood at 234 mg/kg. The “% Inhibition versus control” value in data set [3] (dose 50 mg/kg) was 82%. For the same compound, the “No. WRITHINGS M̄ ± ES” value in data set [3] (setting [6]) amounted to 4.3 ±1.6. Also, in data set [1] (setting [7]), the ED50 is 45 mg/kg. In addition, the LD50 p.o. entry with rat was “about 750 mg/kg”.

What is called LD50 is the dose at which mortality reaches 50%. In turn, `O=C(O)C(O)c1ccc(-c2ccc(F)cc2F)cc1` (centres unmarked) [MR 864, 2-Hydroxy-2-[p-(2",4"-difluorophenyl)phenyl]acetic acid] registered an LD50 in data set [4] of 850 mg/kg. Also, in data set [2], the Inhibition versus control amounted to 42.7% and the “AREAS % M ± ES” value turned out to be 174.7 ±20.7. The “% Inhibition versus control” value in data set [3] (dose 50 mg/kg) was 85%. In addition, the “No. WRITHINGS M̄ ± ES” value in data set [3] (setting [6]) was determined as 3.6 ±1.2. In data set [5] (cyclohexane, petroleum ether), the “solubility in cyclohexane and petroleum ether” value is “soluble”. The “solubility in toluene, chloroform, carbon tetrachloride” value in data set [5] (toluene, chloroform, carbon tetrachloride) is listed as “slightly soluble”. In data set [5], the solubility in water entry is “soluble”.

The compound `O=C(O)C(Cl)c1ccc(-c2ccc(F)cc2F)cc1` (centres unmarked) [MR 881, 2-Chloro-2-[p-(2",4"-difluorophenyl)phenyl]acetic acid] gave an LD50 in data set [4] of 850 mg/kg. Further, in data set [2], the Inhibition versus control worked out at 48.6% and the “AREAS % M ± ES” value amounted to 156.8 ±13.1. The “% Inhibition versus control” value in data set [3] (dose 50 mg/kg) is reported as 95%. Moreover, in data set [5], the “solubility in bicarbonate solutions” value is “soluble”, the “solubility in the usual organic solvents” value is given as “soluble” and the solubility in water result is on record as “insoluble”.

Consider `COC(C(=O)O)c1ccc(-c2ccc(F)cc2F)cc1` (centres unmarked) [MR 883, 2-Methoxy-2-[p-(2^1,4"-difluorophenyl)phenyl]acetic acid], for which the LD50 in data set [4] was determined as 2200 mg/kg. For the same compound, in data set [2], the Inhibition versus control was determined as 52.8%, the “AREAS % M ± ES” value is 144.0 ±17.5 and the ED50 was determined as 145 mg/kg. For the same compound, in data set [3] (dose 50 mg/kg), the “% Inhibition versus control” value came to 98%. In addition, the ED50 in data set [1] (setting [7]) turned out to be 25 mg/kg. Besides, in data set [5], the “solubility in the usual organic solvents” value is recorded as “soluble”.

Turning to `CCOC(C(=O)O)c1ccc(-c2ccc(F)cc2F)cc1` (centres unmarked) [MR 936, 2-Ethoxy-2-[p-(2",4"-difluorophenyl)phenyl]acetic acid], in data set [4], the LD50 was determined as 1800 mg/kg. Further, in data set [2], the Inhibition versus control is 45.8% and the “AREAS % M ± ES” value is listed as 139.7 ±15.2. Also, the “% Inhibition versus control” value in data set [3] (dose 50 mg/kg) is reported as 76.7%. For the same compound, the “No. WRITHINGS M̄ ± ES” value in data set [3] (setting [6]) worked out at 5.7 ±0.8. In data set [5], the “solubility in bicarbonate solutions” value is reported as “soluble” and the “solubility in the usual organic solvents” value was “soluble”.

Consider `COc1ccc2cc([C@H](C)C(=O)O)ccc2c1` [Naproxen, reference compound], for which the “% Inhibition versus control” value in data set [3] (dose 100 mg/kg) is reported as 84%. The “No. WRITHINGS M̄ ± ES” value in data set [3] (dose 100 mg/kg, 10 animals) was 4.0 ±1.1.

Consider `CCCCC1C(=O)N(c2ccccc2)N(c2ccccc2)C1=O` [Phenylbutazone], for which the ED50 in data set [1] (setting [7]) was found to be 180 mg/kg.
